The record followed here is ChEMBL document CHEMBL5137078, “Lysine-Tethered Stable Bicyclic Cationic Antimicrobial Peptide Combats Bacterial Infection in Vivo” (J Med Chem, 2022).

Type in all cases: functional
One experiment concerns Acinetobacter baumannii. As to the kind of experiment: Antibacterial activity against multidrug-resistant Acinetobacter baumannii measured after 16 hrs by microdilution assay. (Dilution methods test growth across graded concentrations, often in twofold steps.)
The subject of experiment [1] is Staphylococcus aureus. As to the kind of experiment: Antibacterial activity against methicillin-resistant Staphylococcus aureus BNCC 186335 measured after 16 hrs by microdilution assay.
For experiment [2], the system named is Pseudomonas aeruginosa. As to the kind of experiment: Antibacterial activity against Pseudomonas aeruginosa BNCC 125486 measured after 16 hrs by microdilution assay.
The test system of experiment [3] is Pseudomonas aeruginosa. As to the kind of experiment: Antibacterial activity against multidrug-resistant Pseudomonas aeruginosa BNCC 125486 measured after 16 hrs by microdilution assay.
Experiment [4] relates to Escherichia coli. As to the kind of experiment: Antibacterial activity against multidrug-resistant Escherichia coli BNCC 133264 measured after 16 hrs by microdilution assay.
A further experiment has as its system Listeria monocytogenes. As to the kind of experiment: Antibacterial activity against Listeria monocytogenes measured after 16 hrs by microdilution assay.
The test system of experiment [5] is Escherichia coli. As to the kind of experiment: Antibacterial activity against Escherichia coli BNCC 133264 measured after 16 hrs by microdilution assay.
Experiment [6] has as its system Staphylococcus aureus. As to the kind of experiment: Antibacterial activity against Staphylococcus aureus BNCC 186335 measured after 16 hrs by microdilution assay.

≈ marks a conversion by molar mass, not a printed value.

Take `CCN1CCN(C(=O)N[C@@H](C(=O)N[C@@H]2C(=O)N3C(C(=O)O)=C(CSc4nnnn4C)CS[C@H]23)c2ccc(O)cc2)C(=O)C1=O` [CEFOPERAZONE]: the MIC99.9 against Acinetobacter baumannii is above 128 µg/mL; in the experiment with Staphylococcus aureus [1], above 128 µg/mL; against Pseudomonas aeruginosa [2], 2 µg/mL (≈ 3.1 µM); with Pseudomonas aeruginosa [3], 128 µg/mL (≈ 198 µM); in the experiment with Escherichia coli [4], above 128 µg/mL; in the experiment on Listeria monocytogenes, 16 µg/mL (≈ 24.8 µM). Further, the MIC99.9 in the experiment with Escherichia coli [5] and against Staphylococcus aureus [6] was below 1 µg/mL in each case.

For `CN[C@H](CC(C)C)C(=O)N[C@H]1C(=O)N[C@@H](CC(N)=O)C(=O)N[C@H]2C(=O)N[C@H]3C(=O)N[C@H](C(=O)N[C@H](C(=O)O)c4cc(O)cc(O)c4-c4cc3ccc4O)[C@H](O)c3ccc(c(Cl)c3)Oc3cc2cc(c3O[C@@H]2O[C@H](CO)[C@@H](O)[C@H](O)[C@H]2O[C@H]2C[C@](C)(N)[C@H](O)[C@H](C)O2)Oc2ccc(cc2Cl)[C@H]1O` [VANCOMYCIN], the MIC99.9 against Acinetobacter baumannii was above 128 µg/mL; in the experiment with Staphylococcus aureus [1], 2 µg/mL (≈ 1.38 µM); in the experiment on Pseudomonas aeruginosa [2], above 128 µg/mL; against Pseudomonas aeruginosa [3] it was above 128 µg/mL; against Escherichia coli [4] it was above 128 µg/mL; in the experiment with Listeria monocytogenes, 1 µg/mL (≈ 0.69 µM). In addition, the figures for the MIC99.9 with Escherichia coli [5] and against Staphylococcus aureus [6] were above 128 µg/mL and 2 µg/mL (≈ 1.38 µM), respectively.
